Data published in US11999727B2 (Tango Therapeutics, Inc., priority 2020, dated 2024).

Key:
PRMT5 [1] = target: T1, PRMT5 (Homo sapiens, UniProt O14744); assay: PRMT5 biochemical IC50 assay with MTA as cofactor; conditions: PRMT5, MTA as cofactor; read-out: MTA IC50
T1 construct: purchased Viva (custom protein)

[2] = test system: HAP1 MTAP-deleted cell line; assay: SDMA in-cell western assay, HAP1 MTAP-deleted; assay type: cell-based; conditions: for IC50: Homo sapiens, HAP1, SDMA in-cell western, HAP1 MTAP-deleted; for MTAP intact/deleted ratio: SDMA in-cell western
Procedure, shortened: (§1)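 MTAP-null vs endogenous-MTAP HAP1 isogenic cells; in-cell western SDMA readout; IC50 per line.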

PRMT5 [3] = target: T1, PRMT5; assay: PRMT5 biochemical IC50 assay with SAM as cofactor; conditions: PRMT5, SAM as cofactor; read-out: SAM IC50
[4] = test system: HAP1 MTAP-intact cell line; assay: SDMA in-cell western assay, HAP1 MTAP-intact; assay type: cell-based; conditions: Homo sapiens, HAP1, SDMA in-cell western, HAP1 MTAP-intact; read-out: MTAP HAP1 intact IC50
Procedure, shortened: as §1

[5] = test system: HAP1 MTAP-deleted cell line; assay: Viability assay, MTAP-deleted cell line; assay type: cell-based; conditions: Homo sapiens, read-out: HAP1 MTAP deleted viability
From the text: Table 1 additionally indicates IC50 values in a viability assay for the MTAP-deleted cell line (column 10), indicating the effect of treatment with compound on cell survival.

PRMT5 [6] = target: T1, PRMT5; assay: PRMT5 biochemical IC50 assay with no cofactor; conditions: PRMT5, no cofactor
From the text: Table 1 indicates IC50 values (μM) against PRMT5 for exemplary compounds in the presence of SAM as cofactor, with no cofactor, and with MTA as cofactor, respectively (columns 4-6). […] Ki values can be calculated from the IC50 values as described in the Examples section. As detailed in the Examples section, for the assay performed in the presence of SAM, IC50=Ki×1.5 (Ki=IC50/1.5).

[7] = read-out: HAP 1 MTAP deleted IC50
[8] = IC50 ratio HAP1 MTAP-intact / HAP1 MTAP-deleted
[9] = HAP1, viability, HAP1 MTAP-deleted cell line
[10] = read-out: No Cofactor/ rel IC50
[11] = HAP1, viability assay, MTAP-deleted cell line

T1 sequence (O14744 whole entry): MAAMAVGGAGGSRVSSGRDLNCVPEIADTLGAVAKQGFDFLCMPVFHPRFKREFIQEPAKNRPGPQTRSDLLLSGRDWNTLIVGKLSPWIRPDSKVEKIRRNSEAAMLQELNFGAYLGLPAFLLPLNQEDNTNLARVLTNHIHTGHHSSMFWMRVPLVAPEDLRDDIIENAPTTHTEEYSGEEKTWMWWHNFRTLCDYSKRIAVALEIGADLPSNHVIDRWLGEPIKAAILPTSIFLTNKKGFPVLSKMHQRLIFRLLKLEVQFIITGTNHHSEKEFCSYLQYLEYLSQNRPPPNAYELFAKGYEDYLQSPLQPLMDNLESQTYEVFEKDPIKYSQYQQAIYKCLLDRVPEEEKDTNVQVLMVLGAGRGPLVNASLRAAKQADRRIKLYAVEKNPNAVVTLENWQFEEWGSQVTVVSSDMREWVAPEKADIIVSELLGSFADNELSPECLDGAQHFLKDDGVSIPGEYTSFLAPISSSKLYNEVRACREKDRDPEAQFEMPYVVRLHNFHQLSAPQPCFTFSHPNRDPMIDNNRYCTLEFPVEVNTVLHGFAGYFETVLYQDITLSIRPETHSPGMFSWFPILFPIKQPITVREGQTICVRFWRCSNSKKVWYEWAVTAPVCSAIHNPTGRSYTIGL
T1 sequence (Q9BQA1 whole entry partner): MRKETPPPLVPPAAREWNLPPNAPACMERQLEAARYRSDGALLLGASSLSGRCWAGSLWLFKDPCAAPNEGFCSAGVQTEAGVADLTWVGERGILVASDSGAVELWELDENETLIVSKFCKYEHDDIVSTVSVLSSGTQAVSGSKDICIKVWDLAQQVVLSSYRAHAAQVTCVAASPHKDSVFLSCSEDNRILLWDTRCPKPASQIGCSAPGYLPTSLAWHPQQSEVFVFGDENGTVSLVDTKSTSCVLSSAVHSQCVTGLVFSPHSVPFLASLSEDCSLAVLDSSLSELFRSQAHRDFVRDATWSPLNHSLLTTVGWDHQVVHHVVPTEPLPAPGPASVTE

SMILES	IC50 (PRMT5 [1])	IC50 [2, 7]	IC50 (PRMT5 [3])	IC50 [4]	IC50 (PRMT5 [6]; [10])	IC50 (PRMT5 [6]; read-out: No Cofactor/rel IC50)	IC50 ([2]; read-out: HAP1 MTAP deleted IC50)	MTAP intact/deleted ratio [2, 8]	IC50 [5, 9]	IC50 ([5]; HAP1, viability IC50, MTAP-deleted cell line)	MTAP intact/deleted ratio ([2]; IC50 ratio HAP1 MTAP-intact vs HAP1 MTAP-deleted)	IC50 [5, 11]
Cc1cncc(NC(=O)C(=O)N2C[C@H](C)CC[C@H]2c2cccc(C)c2)c1 (single isomer, unassigned) [Compound 10]	50 to 500 nM	> 1000 nM	50 to 500 nM	> 1000 nM	50 to 500 nM	–	–	B (an IC50 ratio greater than or equal to 3 fold but lower than 10 fold)	–	–	–	> 10 µM
Cc1cncc(NC(=O)C(=O)N2C[C@@H](C)CC[C@@H]2c2cccc(C)c2)c1 (single isomer, unassigned) [Compound 11]	> 500 nM	> 1000 nM	> 500 nM	> 1000 nM	> 500 nM	–	–	C (an IC50 ratio of less than 3 fold)	–	–	–	> 10 µM
Cc1ccc([C@@H]2CC[C@@H](C)CN2C(=O)C(=O)Nc2cncc(C)c2)cc1 (single isomer, unassigned) [Compound 16]	50 to 500 nM	> 1000 nM	> 500 nM	> 1000 nM	> 500 nM	–	–	B (an IC50 ratio greater than or equal to 3 fold but lower than 10 fold)	–	–	–	> 10 µM
CC[C@@H]1CC[C@@H](c2ccccc2)N(C(=O)C(=O)Nc2cncc(C)c2)C1 (single isomer, unassigned) [Compound 17]	50 to 500 nM	> 1000 nM	> 500 nM	> 1000 nM	> 500 nM	–	–	B (an IC50 ratio greater than or equal to 3 fold but lower than 10 fold)	–	–	–	> 10 µM
Cc1cncc(NC(=O)C(=O)N2C[C@H](C)CC[C@H]2c2ccc(C)c(C)c2)c1 (single isomer, unassigned) [Compound 21]	50 to 500 nM	> 1000 nM	50 to 500 nM	> 1000 nM	50 to 500 nM	–	–	B (an IC50 ratio greater than or equal to 3 fold but lower than 10 fold)	–	–	–	> 10 µM
Cc1cc(NC(=O)C(=O)N2CCCC[C@H]2c2cccs2)cnc1N (single isomer, unassigned) [Compound 22]	50 to 500 nM	> 1000 nM	> 500 nM	> 1000 nM	> 500 nM	–	–	B (an IC50 ratio greater than or equal to 3 fold but lower than 10 fold)	–	–	–	> 10 µM
Cc1cc(NC(=O)C(=O)N2CCCC[C@@H]2c2cccs2)cnc1N (single isomer, unassigned) [Compound 24]	< 50 nM	< 100 nM	50 to 500 nM	> 1000 nM	50 to 500 nM	–	–	A (an IC50 ratio greater than or equal to 10 fold)	–	–	–	> 10 µM

Now from value to molecule, other results behind:

IC50 (PRMT5 [1])	IC50 [2, 7]	IC50 (PRMT5 [3])	IC50 [4]	IC50 (PRMT5 [6]; [10])	IC50 (PRMT5 [6]; read-out: No Cofactor/rel IC50)	IC50 ([2]; read-out: HAP1 MTAP deleted IC50)	SMILES	MTAP intact/deleted ratio [2, 8]	IC50 [5, 9]	IC50 ([5]; HAP1, viability IC50, MTAP-deleted cell line)	MTAP intact/deleted ratio ([2]; IC50 ratio HAP1 MTAP-intact vs HAP1 MTAP-deleted)	IC50 [5, 11]
< 50 nM	< 100 nM	50 to 500 nM	100 to 1000 nM	50 to 500 nM	–	–	C[C@@H]1CC[C@@H](c2ccc3sc(CCN(C)C)nc3c2)N(C(=O)C(=O)Nc2cncc(C(N)=O)c2)C1 (racemic) [Compound 1355, 5-(2-(2-(2-(2-(dimethylamino)ethyl)benzo[d]thiazol-5-yl)-5-methylpiperidin-1-yl)-2-oxoacetamido)nicotinamide]	A (an IC50 ratio greater than or equal to 10 fold)	< 1 µM	–	–	–
< 50 nM	< 100 nM	< 50 nM	< 100 nM	< 50 nM	–	–	CCc1cc(NC(=O)C(=O)N2CC(C)CCC2c2ccc3sc(C4CCN(C)CC4C)nc3c2)cnc1N (racemic) [Compound 1373, N-(6-amino-5-ethyl-3-pyridyl)-2-oxo-2-[rac-(2R,5S)-5-methyl-2-[2-[rac-(3S,4S)-1,3-dimethyl-4-piperidyl]-1,3-benzothiazol-5-yl]-1-piperidyl]acetamide]	B (an IC50 ratio greater than or equal to 3 fold but lower than 10 fold)	< 1 µM	–	–	–
< 50 nM	< 100 nM	50 to 500 nM	100 to 1000 nM	< 50 nM	–	–	CCc1cc(NC(=O)C(=O)N2C[C@@H](C)CC[C@@H]2c2ccc(N3CCN(CC)CC3)c(C)c2)cnc1N (racemic) [Compound 1376, N-(6-Amino-5-ethyl-3-pyridyl)-2-oxo-2-[rac-(2R,5S)-2-[4-(4-ethylpiperazin-1-yl)-3-methyl-phenyl]-5-methyl-1-piperidyl]acetamide]	A (an IC50 ratio greater than or equal to 10 fold)	< 1 µM	–	–	–
< 50 nM	< 100 nM	50 to 500 nM	< 100 nM	50 to 500 nM	–	–	CCc1cc(NC(=O)C(=O)N2C[C@@H](C)CC[C@@H]2c2ccc3nn([C@@H]4CCN(C)C4)cc3c2)cnc1N (racemic) [Compound 1398, N-(6-Amino-5-ethyl-3-pyridyl)-2-oxo-2-[rac-(2R,5S)-5-methyl-2-[2-[rac-(3R)-1-methylpyrrolidin-3-yl]indazol-5-yl]-1-piperidyl]acetamide]	A (an IC50 ratio greater than or equal to 10 fold)	< 1 µM	–	–	–
< 50 nM	< 100 nM	50 to 500 nM	100 to 1000 nM	–	< 50 nM	–	Cc1cc(NC(=O)C(=O)N2C[C@H](C)CC[C@H]2c2ccc3c(c2)CCC(=O)N3)cnc1C (relative stereo) [Compound 632]	A (an IC50 ratio greater than or equal to 10 fold)	–	< 1 µM	–	–
< 50 nM	–	50 to 500 nM	< 100 nM	–	< 50 nM	< 100 nM	CO[C@H]1C[C@H](c2ccc3scnc3c2)N(C(=O)C(=O)Nc2cnc(N)c(C)c2)C[C@H]1C (relative stereo) [Compound 1216]	–	–	–	B (an IC50 ratio greater than or equal to 3 fold but lower than 10 fold)	< 1 µM
< 50 nM	< 100 nM	50 to 500 nM	100 to 1000 nM	< 50 nM	–	–	CCc1cc(NC(=O)C(=O)N2C[C@@H](C)CC[C@@H]2c2ccc3sc(C(F)(F)CN(C)C)nc3c2)cnc1N (relative stereo) [Compound 1280]	A (an IC50 ratio greater than or equal to 10 fold)	< 1 µM	–	–	–
< 50 nM	< 100 nM	50 to 500 nM	100 to 1000 nM	< 50 nM	–	–	CCc1cc(NC(=O)C(=O)N2C[C@@H](C)CC[C@@H]2c2ccc(N3CC[C@@H]4CN(C)C[C@@H]4C3)cc2)cnc1N (relative stereo) [Compound 1349]	A (an IC50 ratio greater than or equal to 10 fold)	< 1 µM	–	–	–
> 500 nM	> 1000 nM	> 500 nM	> 1000 nM	> 500 nM	–	–	Cc1cc(NC(=O)C(=O)N2CCCC[C@H]2C2CCCCC2)cnc1N (single isomer, unassigned) [Compound 34]	C (an IC50 ratio of less than 3 fold)	–	–	–	> 10 µM
< 50 nM	< 100 nM	50 to 500 nM	> 1000 nM	50 to 500 nM	–	–	Cc1cc(NC(=O)C(=O)N2CCCC[C@@H]2C2CCCCC2)cnc1N (single isomer, unassigned) [Compound 42]	A (an IC50 ratio greater than or equal to 10 fold)	–	–	–	1 to 10 µM
